Paper PMC6151500 (Molecules : A Journal of Synthetic Chemistry and Natural …, 2017)

Molecular target: Homo sapiens butyrylcholinesterase (hBuChE) (Homo sapiens, UniProt P06276)
Test: Inhibition of hBuChE (Ellman assay, 4PL dose-response)

Homo sapiens butyrylcholinesterase (hBuChE), sequence (P06276 29-602): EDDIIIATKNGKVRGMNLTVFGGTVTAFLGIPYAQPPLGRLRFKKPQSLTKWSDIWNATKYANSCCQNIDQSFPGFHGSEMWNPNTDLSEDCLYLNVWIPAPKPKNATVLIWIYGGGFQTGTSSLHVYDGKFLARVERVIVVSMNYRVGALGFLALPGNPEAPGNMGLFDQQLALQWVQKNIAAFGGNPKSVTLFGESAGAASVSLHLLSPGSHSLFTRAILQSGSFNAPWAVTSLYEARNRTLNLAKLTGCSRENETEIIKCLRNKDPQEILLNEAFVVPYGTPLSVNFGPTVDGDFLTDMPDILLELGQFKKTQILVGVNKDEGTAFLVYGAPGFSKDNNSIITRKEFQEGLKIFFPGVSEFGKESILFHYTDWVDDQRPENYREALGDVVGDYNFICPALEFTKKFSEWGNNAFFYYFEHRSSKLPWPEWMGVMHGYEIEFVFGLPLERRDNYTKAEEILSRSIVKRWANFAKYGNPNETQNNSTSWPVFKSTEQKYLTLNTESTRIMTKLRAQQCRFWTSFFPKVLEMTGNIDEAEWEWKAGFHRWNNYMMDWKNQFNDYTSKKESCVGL

Molecule CN(C)c1ccc(C(=C2C=CC(=[N+](C)C)C=C2)c2ccc(N(C)C)cc2)cc1 [CV, tris(4-(dimethylamino)phenyl)methylium chloride] has an IC50 of 900 nM.
